Laboratory results published in patent publication US20240199640A1, “NEGATIVE ALLOSTERIC MODULATORS OF METABOTROPIC GLUTAMATE RECEPTOR 2” (priority 2021, published 2024).
Values joined by “and” are separate entries in the source; they are usually repeats but may differ in a detail not shown here. Equal values may be shown once.

The molecules below were run against T1, rat mGlu2 (Rattus norvegicus, UniProt P31421) (assay: mGlu GIRK cell-based thallium flux assay, rat mGlu2). Conditions: rat mGlu2 GIRK IC50 (nM), HEK-293 cells co-expressing rat mGlu2 and GIRK; EC80 glutamate; Tl flux.
T1 construct: expressed in transfected cells; host or cells: HEK-293
Experimental: The day before the assay, GIRK cells co-expressing human mGlu3, human or rat mGlu2, as described above, were plated in black-walled, clear-bottomed, amine-coated 384-well plates at a density of 15,000 cells/20 μL/well in the assay medium (glutamine-depleted basal DMEM supplemented with 10% dialyzed FBS, 20 mM HEPES, 1 mM sodium pyruvate). Cells were incubated at 37° C. in the presence of 5% CO2. […] Cells were washed with assay buffer using a microplate washer to remove the medium, resulting in 20 μL of buffer remaining in each well. Immediately, 20 μL of 2× Thallos dye solution was added to cells, and incubated for one hour at 25° C. During the cell dye loading incubation period, a 10-point concentration serial dilution of compound was created from a 10 mM DMSO compound stock by performing a 1:3 serial dilution in DMSO using the Bravo liquid handler. The 2× compound plate was generated by transferring 0.24 μL of the diluted compound in each well to a daughter plate using an Echo acoustic liquid handler.
After dye-loading, cell plates were washed with assay buffer to remove excess extracellular dye using a microplate washer, resulting in 20 μL of buffer remaining in each well. After a ten-minute equilibration period, cell, compound and agonist plates were loaded into a Hamamatsu μCell kinetic imaging plate reader equipped with liquid handler to monitor fluorescence changes at 480 nm excitation and 540 nm emission settings. Briefly, after collection of baseline fluorescence, 20 μL of compound was added and incubated for two minutes and twenty seconds. This is immediately followed by adding 10 μL of glutamate-thallium buffer to the wells containing compound. The fluorescent signal was monitored an additional 2.5 minutes after the glutamate addition. Multiple reference wells containing no compound received either no glutamate (for a baseline reference), […] glutamate, or ECmax glutamate (for normalization to maximum response). Fluorescence was measured throughout the experiment at a frequency of 1 measurement per every 2 seconds before the glutamate addition and a frequency of 1 measurement per every 1 second after the glutamate addition. Each compound concentration series occurred one time in each plate, and replicates from two or three plates were used in each experimental run. Thallium solutions were handled and disposed of according to guidelines from the Vanderbilt University Chemical Safety department.
Data were normalized using a static ratio function (F/F0) by dividing every fluorescent measurement by the initial fluorescent value for the corresponding well. The increase in signal resulting from the glutamate/thallium addition of the second add was measured by determining the slope from 3 seconds to 13 seconds after the addition. The average of all baseline slopes (no compound, no glutamate) was determined and this value was subtracted from all other slope values. The average of all ECmax slopes was determined and this value was used to normalize the baseline-corrected slopes to a percent max value (% Emax). The % Emax values for each compound series were plotted versus the log of the concentration and fit to a 4-parameter logistical equation with no fixed parameters.
Potency is reported as the IC50 resulting from the curve fit.

T1 sequence (P31421 19-872): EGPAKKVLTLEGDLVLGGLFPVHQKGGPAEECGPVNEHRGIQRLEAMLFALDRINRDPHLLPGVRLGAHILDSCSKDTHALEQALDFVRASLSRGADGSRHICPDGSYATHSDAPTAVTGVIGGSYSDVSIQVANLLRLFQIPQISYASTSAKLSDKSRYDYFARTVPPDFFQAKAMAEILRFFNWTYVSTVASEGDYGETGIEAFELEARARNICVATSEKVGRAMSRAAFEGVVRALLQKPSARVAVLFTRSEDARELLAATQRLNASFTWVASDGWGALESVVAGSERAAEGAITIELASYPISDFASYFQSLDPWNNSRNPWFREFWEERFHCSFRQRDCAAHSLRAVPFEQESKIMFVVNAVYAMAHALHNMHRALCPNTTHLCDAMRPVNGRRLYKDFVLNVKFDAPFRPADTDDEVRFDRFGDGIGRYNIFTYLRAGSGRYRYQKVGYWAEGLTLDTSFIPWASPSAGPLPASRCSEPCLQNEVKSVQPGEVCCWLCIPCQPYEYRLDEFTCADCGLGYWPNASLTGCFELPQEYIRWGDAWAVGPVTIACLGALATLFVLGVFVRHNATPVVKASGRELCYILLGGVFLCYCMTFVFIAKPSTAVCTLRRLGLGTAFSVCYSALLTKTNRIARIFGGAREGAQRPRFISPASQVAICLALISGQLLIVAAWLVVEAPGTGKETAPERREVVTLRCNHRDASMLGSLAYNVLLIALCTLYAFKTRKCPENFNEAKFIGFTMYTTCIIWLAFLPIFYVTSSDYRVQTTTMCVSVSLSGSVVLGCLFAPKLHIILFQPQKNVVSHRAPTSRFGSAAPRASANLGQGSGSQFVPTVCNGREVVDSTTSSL

| Structure (SMILES) | IC50 |
| --- | --- |
| Cc1nn(C)cc1-c1cc2c(cc1OCc1ccn(C)n1)CNC2=O [Compound 45, 6-(1,3-dimethyl-1H-pyrazol-4-yl)-5-((1-methyl-1H-pyrazol-3-yl)methoxy)isoindolin-1-one] | 3820 nM |
| Cn1cc(-c2cc3c(cc2OCc2ccn(C)n2)CNC3=O)cn1 [Compound 46, 5-((1-methyl-1H-pyrazol-3-yl)methoxy)-6-(1-methyl-1H-pyrazol-4-yl)isoindolin-1-one] | > 10000 nM |
| Cn1ccc(-c2cc3c(cc2OCc2ccn(C)n2)CNC3=O)c1 [Compound 47, 5-((1-methyl-1H-pyrazol-3-yl)methoxy)-6-(1-methyl-1H-pyrrol-3-yl)isoindolin-1-one] | > 10000 nM |
| Cc1cc(-c2cc3c(cc2OCc2ccn(C)n2)CNC3=O)n(C)n1 [Compound 48, 6-(1,3-dimethyl-1H-pyrazol-5-yl)-5-((1-methyl-1H-pyrazol-3-yl)methoxy)isoindolin-1-one] | > 10000 nM |
| Cc1c(-c2cc3c(cc2OCc2ccn(C)n2)CNC3=O)cc(C#N)n1C [Compound 49, 1,5-dimethyl-4-(6-((1-methyl-1H-pyrazol-3-yl)methoxy)-3-oxoisoindolin-5-yl)-1H-pyrrole-2-carbonitrile] | > 10000 nM |
| Cn1ccc(COc2cc3c(cc2-c2cnn(C(F)F)c2)C(=O)NC3)n1 [Compound 50, 6-(1-(difluoromethyl)-1H-pyrazol-4-yl)-5-((1-methyl-1H-pyrazol-3-yl)methoxy)isoindolin-1-one] | 2360 nM |
| Cn1ccc(COc2cc3c(cc2-c2ccc4c(c2)CCO4)C(=O)NC3)n1 [Compound 51, 6-(2,3-dihydrobenzofuran-5-yl)-5-((1-methyl-1H-pyrazol-3-yl)methoxy)isoindolin-1-one] | 965 nM |
| Cn1ccc(COc2cc3c(cc2-c2ccc4ncsc4c2)C(=O)NC3)n1 [Compound 52, 6-(benzo[d]thiazol-6-yl)-5-((1-methyl-1H-pyrazol-3-yl)methoxy)isoindolin-1-one] | 675 nM |
| Cn1ccc(COc2cc3c(cc2-c2ccc4c(c2)OCO4)C(=O)NC3)n1 [Compound 55, 6-(benzo[d][1,3]dioxol-5-yl)-5-((1-methyl-1H-pyrazol-3-yl)methoxy)isoindolin-1-one] | 1190 nM and 362 nM |
| Cn1ccc(COc2cc3c(cc2-c2ccc4c(c2)OCCO4)C(=O)NC3)n1 [Compound 56, 6-(2,3-dihydrobenzo[b][1,4]dioxin-6-yl)-5-((1-methyl-1H-pyrazol-3-yl)methoxy)isoindolin-1-one] | 2930 nM and 7540 nM |
| [2H]C([2H])(Oc1cc2c(cc1-c1cc(F)cc(C#N)c1)C(=O)NC2)c1ccc(C)nc1 [Compound 59, 3-fluoro-5-(6-((6-methylpyridin-3-yl)methoxy-d2)-3-oxoisoindolin-5-yl)benzonitrile] | > 10000 nM |
| Cn1cc(OCc2cc3c(cc2-c2ccc(F)cc2)C(=O)NC3)cn1 [Compound 63, 6-(4-fluorophenyl)-5-(((1-methyl-1H-pyrazol-4-yl)oxy)methyl)isoindolin-1-one] | 1190 nM and 1570 nM |
| Cn1ccc(OCc2cc3c(cc2-c2ccc(F)cc2)C(=O)NC3)n1 [Compound 64, 6-(4-fluorophenyl)-5-(((1-methyl-1H-pyrazol-3-yl)oxy)methyl)isoindolin-1-one] | 2930 nM and 582 nM |
| O=C1NCc2cc(OC3CN(C(=O)c4cccc(C(F)(F)F)c4)C3)c(-c3ccc(F)cc3)cc21 [Compound 66, 6-(4-fluorophenyl)-5-((1-(3-(trifluoromethyl)benzoyl)azetidin-3-yl)oxy)isoindolin-1-one] | 7540 nM and > 30000 nM |
| O=C1NCc2cc(OC3CN(C(=O)c4cccs4)C3)c(-c3ccc(F)cc3)cc21 [Compound 67, 6-(4-fluorophenyl)-5-((1-(thiophene-2-carbonyl)azetidin-3-yl)oxy)isoindolin-1-one] | > 10000 nM |
| O=C1NCc2cc(OC3CN(C(=O)c4ccno4)C3)c(-c3ccc(F)cc3)cc21 [Compound 69, 6-(4-fluorophenyl)-5-((1-(isoxazole-5-carbonyl)azetidin-3-yl)oxy)isoindolin-1-one] | > 10000 nM |
| N#Cc1cccc(C(=O)N2CC(Oc3cc4c(cc3-c3ccc(F)cc3)C(=O)NC4)C2)c1 [Compound 70, 3-(3-((6-(4-fluorophenyl)-1-oxoisoindolin-5-yl)oxy)azetidine-1-carbonyl)benzonitrile] | 4780 nM and > 30000 nM |
| Cn1ccc(N2CC(Oc3cc4c(cc3-c3ccc(F)cc3)C(=O)NC4)C2)n1 [Compound 71, 6-(4-fluorophenyl)-5-((1-(1-methyl-1H-pyrazol-3-yl)azetidin-3-yl)oxy)isoindolin-1-one] | 1960 nM |
| Cc1ncc(S(=O)(=O)N2CC(Oc3cc4c(cc3-c3ccc(F)cc3)C(=O)NC4)C2)s1 [Compound 72, 6-(4-fluorophenyl)-5-((1-((2-methylthiazol-5-yl)sulfonyl)azetidin-3-yl)oxy)isoindolin-1-one] | 2140 nM |
| Cc1c(S(=O)(=O)N2CC(Oc3cc4c(cc3-c3ccc(F)cc3)C(=O)NC4)C2)cnn1C(F)F [Compound 73, 5-((1-((1-(difluoromethyl)-5-methyl-1H-pyrazol-4-yl)sulfonyl)azetidin-3-yl)oxy)-6-(4-fluorophenyl)isoindolin-1-one] | 8040 nM |
| Cc1nocc1S(=O)(=O)N1CC(Oc2cc3c(cc2-c2ccc(F)cc2)C(=O)NC3)C1 [Compound 74, 6-(4-fluorophenyl)-5-((1-((3-methylisoxazol-4-yl)sulfonyl)azetidin-3-yl)oxy)isoindolin-1-one] | > 10000 nM |
| O=C1NCc2cc(OC3CN(S(=O)(=O)c4ccc5cnccc5c4)C3)c(-c3ccc(F)cc3)cc21 [Compound 75, 6-(4-fluorophenyl)-5-((1-(isoquinolin-6-ylsulfonyl)azetidin-3-yl)oxy)isoindolin-1-one] | > 10000 nM |
| Cc1csc(C)c1S(=O)(=O)N1CC(Oc2cc3c(cc2-c2ccc(F)cc2)C(=O)NC3)C1 [Compound 76, 5-((1-((2,4-dimethylthiophen-3-yl)sulfonyl)azetidin-3-yl)oxy)-6-(4-fluorophenyl)isoindolin-1-one] | 1000 nM |
| Cc1cc(S(=O)(=O)N2CC(Oc3cc4c(cc3-c3ccc(F)cc3)C(=O)NC4)C2)nn1C [Compound 77, 5-((1-((1,5-dimethyl-1H-pyrazol-3-yl)sulfonyl)azetidin-3-yl)oxy)-6-(4-fluorophenyl)isoindolin-1-one] | 2670 nM |
| Cn1cc(CN2CC(Oc3cc4c(cc3-c3ccc(F)cc3)C(=O)NC4)C2)cn1 [Compound 78, 6-(4-fluorophenyl)-5-((1-((1-methyl-1H-pyrazol-4-yl)methyl)azetidin-3-yl)oxy)isoindolin-1-one] | > 10000 nM |
| Cc1nc(CN2CC(Oc3cc4c(cc3-c3ccc(F)cc3)C(=O)NC4)C2)cs1 [Compound 79, 6-(4-fluorophenyl)-5-((1-((2-methylthiazol-4-yl)methyl)azetidin-3-yl)oxy)isoindolin-1-one] | 2540 nM |
| Cc1cc(CN2CC(Oc3cc4c(cc3-c3ccc(F)cc3)C(=O)NC4)C2)no1 [Compound 80, 6-(4-fluorophenyl)-5-((1-((5-methylisoxazol-3-yl)methyl)azetidin-3-yl)oxy)isoindolin-1-one] | 1990 nM |
| O=C1NCc2cc(OC3CN(Cc4ccc(C(F)(F)F)o4)C3)c(-c3ccc(F)cc3)cc21 [Compound 81, 6-(4-fluorophenyl)-5-((1-((5-(trifluoromethyl)furan-2-yl)methyl)azetidin-3-yl)oxy)isoindolin-1-one] | 1670 nM |
| O=C1NCc2cc(OC3CN(Cc4cccnc4Cl)C3)c(-c3ccc(F)cc3)cc21 [Compound 82, 5-((1-((2-chloropyridin-3-yl)methyl)azetidin-3-yl)oxy)-6-(4-fluorophenyl)isoindolin-1-one] | 2610 nM |
| O=C1NCc2cc(OC3CN(Cc4ccc5ncccc5c4)C3)c(-c3ccc(F)cc3)cc21 [Compound 83, 6-(4-fluorophenyl)-5-((1-(quinolin-6-ylmethyl)azetidin-3-yl)oxy)isoindolin-1-one] | 5000 nM |
